From the NIST ThermoML archive (doi:10.1016/j.jct.2013.08.021)
Numbers after ± are expanded uncertainties.

Key:
[1] = xn = mol fraction of the nth substance listed; details: 101 kPa, Liquid; for speed of sound: Sing-around technique in a fixed-path interferometer; for mass density: Vibrating tube method
[2] = refractive index (Na D-line) (dimensionless); xn = mol fraction of the nth substance listed; details: 101 kPa, Liquid, Standard Abbe refractometry

CCC[N+]1(C)CCCC1.O=S(=O)([N-]S(=O)(=O)C(F)(F)F)C(F)(F)F + CO
Details	mass density, 298.15 K [kg/m3]	mass density, 303.15 K [kg/m3]	mass density, 308.15 K [kg/m3]	refractive index, 298.15 K	refractive index, 303.15 K	refractive index, 308.15 K	speed of sound, 298.15 K [m/s]	speed of sound, 303.15 K [m/s]	speed of sound, 308.15 K [m/s]
[1], x2 = 0	1427.86 ± 0.6	1423.26 ± 0.6	1418.83 ± 0.59	–	–	–	1270.6 ± 1.5	1259.5 ± 1.5	1248.6 ± 1.5
[1], x2 = 0.0462	1423.37 ± 0.56	1418.86 ± 0.56	1414.35 ± 0.56	–	–	–	1268.8 ± 1.5	1257.7 ± 1.5	1246.8 ± 1.5
[1], x2 = 0.0901	1418.77 ± 0.53	1414.23 ± 0.53	1409.69 ± 0.52	–	–	–	1266.9 ± 1.5	1255.8 ± 1.5	1244.9 ± 1.5
[1], x2 = 0.1769	1408.88 ± 0.47	1404.34 ± 0.46	1399.8 ± 0.46	–	–	–	1262.7 ± 1.4	1251.6 ± 1.4	1240.6 ± 1.4
[1], x2 = 0.2722	1396.02 ± 0.41	1391.43 ± 0.4	1386.85 ± 0.4	–	–	–	1257.1 ± 1.4	1246 ± 1.4	1234.9 ± 1.4
[1], x2 = 0.3855	1376.42 ± 0.34	1371.67 ± 0.34	1367.04 ± 0.34	–	–	–	1248.7 ± 1.3	1237.4 ± 1.3	1226.2 ± 1.3
[1], x2 = 0.568	1329.02 ± 0.25	1324.31 ± 0.25	1319.61 ± 0.25	–	–	–	1228.6 ± 1.3	1217 ± 1.3	1205.7 ± 1.3
[1], x2 = 0.685	1279.72 ± 0.23	1274.95 ± 0.23	1270.18 ± 0.23	–	–	–	1208.5 ± 1.2	1196.8 ± 1.2	1185.2 ± 1.2
[1], x2 = 0.798	1201.72 ± 0.25	1196.89 ± 0.25	1192.05 ± 0.26	–	–	–	1180.4 ± 1.2	1168.2 ± 1.2	1156.1 ± 1.2
[1], x2 = 0.8984	1075.97 ± 0.33	1071.1 ± 0.32	1066.22 ± 0.33	–	–	–	1144.6 ± 1.2	1131.4 ± 1.2	1118.3 ± 1.2
[1], x2 = 0.9467	973.15 ± 0.59	968.3 ± 0.58	963.44 ± 0.59	–	–	–	1124.5 ± 1.2	1110.3 ± 1.1	1096.2 ± 1.1
[2], x2 = 0	–	–	–	1.42064 ± 0.00037	1.41926 ± 0.00037	1.41782 ± 0.00037	–	–	–
[2], x2 = 0.0462	–	–	–	1.42002 ± 0.00036	1.41862 ± 0.00036	1.41719 ± 0.00036	–	–	–
[2], x2 = 0.0901	–	–	–	1.41937 ± 0.00036	1.41801 ± 0.00036	1.41659 ± 0.00036	–	–	–
[2], x2 = 0.1769	–	–	–	1.41794 ± 0.00035	1.41675 ± 0.00035	1.41551 ± 0.00035	–	–	–
[2], x2 = 0.2722	–	–	–	1.41609 ± 0.00034	1.41503 ± 0.00034	1.4136 ± 0.00034	–	–	–
[2], x2 = 0.3855	–	–	–	1.41327 ± 0.00034	1.41206 ± 0.00034	1.41063 ± 0.00034	–	–	–
[2], x2 = 0.568	–	–	–	1.40659 ± 0.00033	1.4055 ± 0.00033	1.404 ± 0.00033	–	–	–
[2], x2 = 0.685	–	–	–	1.39953 ± 0.00032	1.39832 ± 0.00032	1.39695 ± 0.00032	–	–	–
[2], x2 = 0.798	–	–	–	1.38838 ± 0.00032	1.38703 ± 0.00032	1.38569 ± 0.00032	–	–	–
[2], x2 = 0.8984	–	–	–	1.37031 ± 0.00032	1.36877 ± 0.00032	1.36712 ± 0.00032	–	–	–
[2], x2 = 0.9467	–	–	–	1.35498 ± 0.00032	1.35335 ± 0.00032	1.35185 ± 0.00032	–	–	–

CCC[N+]1(C)CCCC1.O=S(=O)([N-]S(=O)(=O)C(F)(F)F)C(F)(F)F + CCCO
Details	mass density, 298.15 K [kg/m3]	mass density, 303.15 K [kg/m3]	mass density, 308.15 K [kg/m3]	refractive index, 298.15 K	refractive index, 303.15 K	refractive index, 308.15 K	speed of sound, 298.15 K [m/s]	speed of sound, 303.15 K [m/s]	speed of sound, 308.15 K [m/s]
[1], x2 = 0	1427.86 ± 0.6	1423.26 ± 0.6	1418.83 ± 0.59	–	–	–	1270.6 ± 1.5	1259.5 ± 1.5	1248.6 ± 1.5
[1], x2 = 0.0938	1411.16 ± 0.52	1406.64 ± 0.52	1402.12 ± 0.52	–	–	–	1265.5 ± 1.5	1254.3 ± 1.5	1243.4 ± 1.5
[1], x2 = 0.1942	1390.36 ± 0.45	1385.82 ± 0.44	1381.28 ± 0.44	–	–	–	1259.2 ± 1.4	1248 ± 1.4	1236.8 ± 1.4
[1], x2 = 0.3092	1361.8 ± 0.37	1357.24 ± 0.36	1352.68 ± 0.36	–	–	–	1250.8 ± 1.4	1239.4 ± 1.4	1228.1 ± 1.4
[1], x2 = 0.3925	1336.96 ± 0.32	1332.37 ± 0.31	1327.8 ± 0.31	–	–	–	1243.8 ± 1.3	1232.2 ± 1.3	1220.8 ± 1.3
[1], x2 = 0.5031	1296.59 ± 0.26	1291.99 ± 0.26	1287.39 ± 0.26	–	–	–	1233 ± 1.3	1221.2 ± 1.3	1209.4 ± 1.3
[1], x2 = 0.6035	1249.57 ± 0.23	1244.97 ± 0.23	1240.35 ± 0.23	–	–	–	1221.4 ± 1.2	1209.3 ± 1.2	1197.2 ± 1.2
[1], x2 = 0.6084	1246.93 ± 0.23	1242.32 ± 0.23	1237.71 ± 0.22	–	–	–	1220.8 ± 1.2	1208.7 ± 1.2	1196.6 ± 1.2
[1], x2 = 0.6973	1192.26 ± 0.22	1187.68 ± 0.22	1183.08 ± 0.22	–	–	–	1209.2 ± 1.2	1196.7 ± 1.2	1184.2 ± 1.2
[1], x2 = 0.8048	1102.79 ± 0.24	1098.29 ± 0.24	1093.76 ± 0.25	–	–	–	1194.6 ± 1.2	1181.5 ± 1.2	1168.3 ± 1.2
[1], x2 = 0.8994	988.76 ± 0.29	984.42 ± 0.28	980.03 ± 0.29	–	–	–	1187.7 ± 1.2	1173.4 ± 1.2	1159.1 ± 1.2
[1], x2 = 0.9465	912.36 ± 0.39	908.13 ± 0.4	903.87 ± 0.4	–	–	–	1192 ± 1.2	1176.5 ± 1.2	1161.2 ± 1.2
[2], x2 = 0	–	–	–	1.42064 ± 0.00037	1.41926 ± 0.00037	1.41782 ± 0.00037	–	–	–
[2], x2 = 0.0938	–	–	–	1.41963 ± 0.00036	1.41825 ± 0.00036	1.41678 ± 0.00036	–	–	–
[2], x2 = 0.1942	–	–	–	1.41841 ± 0.00035	1.41693 ± 0.00035	1.4155 ± 0.00035	–	–	–
[2], x2 = 0.3092	–	–	–	1.41669 ± 0.00034	1.41521 ± 0.00034	1.41375 ± 0.00034	–	–	–
[2], x2 = 0.3925	–	–	–	1.41523 ± 0.00034	1.41377 ± 0.00034	1.41227 ± 0.00034	–	–	–
[2], x2 = 0.5031	–	–	–	1.41287 ± 0.00033	1.41135 ± 0.00033	1.40984 ± 0.00033	–	–	–
[2], x2 = 0.6035	–	–	–	1.41013 ± 0.00032	1.40858 ± 0.00032	1.40703 ± 0.00032	–	–	–
[2], x2 = 0.6084	–	–	–	1.40996 ± 0.00032	1.40837 ± 0.00032	1.40681 ± 0.00032	–	–	–
[2], x2 = 0.6973	–	–	–	1.40685 ± 0.00032	1.40519 ± 0.00032	1.40364 ± 0.00032	–	–	–
[2], x2 = 0.8048	–	–	–	1.40163 ± 0.00031	1.40019 ± 0.00032	1.39885 ± 0.00032	–	–	–
[2], x2 = 0.8994	–	–	–	1.39494 ± 0.00031	1.39356 ± 0.00031	1.39205 ± 0.00031	–	–	–
[2], x2 = 0.9465	–	–	–	1.39023 ± 0.00031	1.38843 ± 0.00031	1.38653 ± 0.00031	–	–	–
